Some targets named below: Motilin receptor (Homo sapiens, UniProt O43193); Histamine H2 receptor (Homo sapiens, UniProt P25021); Cannabinoid receptor 1 (Homo sapiens, UniProt P21554).
Assay [1] has as its target Voltage-dependent N-type calcium channel subunit alpha-1B (Rattus norvegicus, UniProt Q02294). Format: functional.
Assay [2] addresses T1, Gastric inhibitory polypeptide receptor (Homo sapiens, UniProt P48546).
T1 sequence (P48546 whole entry): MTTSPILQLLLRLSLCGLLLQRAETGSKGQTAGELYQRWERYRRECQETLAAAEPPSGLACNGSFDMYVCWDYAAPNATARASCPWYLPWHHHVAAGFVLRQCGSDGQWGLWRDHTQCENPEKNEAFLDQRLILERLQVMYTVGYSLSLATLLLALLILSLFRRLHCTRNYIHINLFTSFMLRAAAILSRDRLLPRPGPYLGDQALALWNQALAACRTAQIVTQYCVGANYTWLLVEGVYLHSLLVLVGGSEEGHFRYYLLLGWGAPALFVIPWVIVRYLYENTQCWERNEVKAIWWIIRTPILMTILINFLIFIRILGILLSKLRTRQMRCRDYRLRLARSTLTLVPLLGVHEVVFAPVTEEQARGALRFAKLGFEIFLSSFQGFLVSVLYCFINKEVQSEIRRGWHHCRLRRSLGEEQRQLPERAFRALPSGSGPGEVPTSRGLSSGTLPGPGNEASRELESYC

In assay [3] the target is T2, Prostaglandin G/H synthase 1 (Rattus norvegicus, UniProt Q63921).
T2 sequence (Q63921 whole entry): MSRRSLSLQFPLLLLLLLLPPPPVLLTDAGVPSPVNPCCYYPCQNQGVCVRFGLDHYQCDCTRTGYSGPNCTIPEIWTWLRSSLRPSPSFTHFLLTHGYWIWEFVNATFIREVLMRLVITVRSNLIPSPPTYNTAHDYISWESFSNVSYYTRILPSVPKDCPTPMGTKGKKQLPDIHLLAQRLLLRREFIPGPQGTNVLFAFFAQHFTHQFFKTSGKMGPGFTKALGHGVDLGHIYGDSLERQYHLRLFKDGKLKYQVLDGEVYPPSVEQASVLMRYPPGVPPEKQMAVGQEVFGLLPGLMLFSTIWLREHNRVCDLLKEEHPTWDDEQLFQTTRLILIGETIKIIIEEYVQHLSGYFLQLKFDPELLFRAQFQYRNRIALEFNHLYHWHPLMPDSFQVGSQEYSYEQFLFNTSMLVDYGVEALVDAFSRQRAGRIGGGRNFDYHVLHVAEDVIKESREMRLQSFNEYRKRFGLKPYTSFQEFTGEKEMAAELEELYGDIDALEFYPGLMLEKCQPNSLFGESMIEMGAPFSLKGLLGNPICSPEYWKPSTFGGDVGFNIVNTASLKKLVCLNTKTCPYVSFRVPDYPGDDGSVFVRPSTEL
Format: functional.

Assay [4] deals with T3, Neuropeptide Y receptor type 2 (Homo sapiens, UniProt P49146).
T3 sequence (P49146 whole entry): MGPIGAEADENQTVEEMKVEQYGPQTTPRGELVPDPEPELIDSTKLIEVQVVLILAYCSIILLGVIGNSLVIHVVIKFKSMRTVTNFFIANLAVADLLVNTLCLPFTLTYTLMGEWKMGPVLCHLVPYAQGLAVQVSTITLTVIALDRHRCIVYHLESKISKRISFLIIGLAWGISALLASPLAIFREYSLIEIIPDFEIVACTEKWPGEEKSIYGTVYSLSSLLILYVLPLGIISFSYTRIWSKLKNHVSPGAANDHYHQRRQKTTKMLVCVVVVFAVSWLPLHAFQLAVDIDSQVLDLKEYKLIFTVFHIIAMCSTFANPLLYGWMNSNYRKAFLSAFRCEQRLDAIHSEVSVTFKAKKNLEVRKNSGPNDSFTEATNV

Assay [5] concerns the target Beta-3 adrenergic receptor (Homo sapiens, UniProt P13945).
The target in assay [6] is Neurotensin receptor type 1 (Homo sapiens, UniProt P30989).
The target of assay [7] is 5-hydroxytryptamine receptor 2B (Homo sapiens, UniProt P41595).
5-hydroxytryptamine receptor 2B, sequence (P41595 whole entry): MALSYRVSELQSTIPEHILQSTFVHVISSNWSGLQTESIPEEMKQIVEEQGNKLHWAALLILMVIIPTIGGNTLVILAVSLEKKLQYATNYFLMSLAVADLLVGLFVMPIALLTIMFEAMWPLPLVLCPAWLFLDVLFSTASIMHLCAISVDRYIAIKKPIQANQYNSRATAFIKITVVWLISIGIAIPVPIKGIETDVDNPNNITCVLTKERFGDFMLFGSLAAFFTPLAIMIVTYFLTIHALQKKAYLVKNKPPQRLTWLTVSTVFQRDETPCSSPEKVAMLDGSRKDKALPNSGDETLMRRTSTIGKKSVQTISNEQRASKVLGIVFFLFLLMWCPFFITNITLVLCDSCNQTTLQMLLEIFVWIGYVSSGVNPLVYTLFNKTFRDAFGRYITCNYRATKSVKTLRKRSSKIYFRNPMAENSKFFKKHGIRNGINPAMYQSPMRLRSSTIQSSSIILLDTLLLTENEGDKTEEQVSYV
Assay [8] concerns the target Beta-2 adrenergic receptor (Homo sapiens, UniProt P07550). It counts as functional, cell-based.
Assay [9] deals with 5-hydroxytryptamine receptor 2A (Homo sapiens, UniProt P28223). It counts as functional, cell-based.
5-hydroxytryptamine receptor 2A, sequence (P28223 whole entry): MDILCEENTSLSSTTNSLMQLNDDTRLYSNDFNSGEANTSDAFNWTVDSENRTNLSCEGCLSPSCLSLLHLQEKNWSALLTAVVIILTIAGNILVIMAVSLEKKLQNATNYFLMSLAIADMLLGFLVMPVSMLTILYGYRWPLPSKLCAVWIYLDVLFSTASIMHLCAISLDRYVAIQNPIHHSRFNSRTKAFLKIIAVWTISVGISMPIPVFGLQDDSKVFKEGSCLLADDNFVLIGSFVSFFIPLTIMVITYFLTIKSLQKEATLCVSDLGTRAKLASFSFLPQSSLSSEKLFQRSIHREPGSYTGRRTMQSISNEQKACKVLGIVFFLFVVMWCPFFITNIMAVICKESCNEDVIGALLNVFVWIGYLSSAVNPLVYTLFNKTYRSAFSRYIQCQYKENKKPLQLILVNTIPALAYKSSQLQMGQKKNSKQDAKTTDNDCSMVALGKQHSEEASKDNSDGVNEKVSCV
For a further assay, the target named is T4, Androgen receptor (Rattus norvegicus, UniProt P15207).
T4 sequence (P15207 whole entry): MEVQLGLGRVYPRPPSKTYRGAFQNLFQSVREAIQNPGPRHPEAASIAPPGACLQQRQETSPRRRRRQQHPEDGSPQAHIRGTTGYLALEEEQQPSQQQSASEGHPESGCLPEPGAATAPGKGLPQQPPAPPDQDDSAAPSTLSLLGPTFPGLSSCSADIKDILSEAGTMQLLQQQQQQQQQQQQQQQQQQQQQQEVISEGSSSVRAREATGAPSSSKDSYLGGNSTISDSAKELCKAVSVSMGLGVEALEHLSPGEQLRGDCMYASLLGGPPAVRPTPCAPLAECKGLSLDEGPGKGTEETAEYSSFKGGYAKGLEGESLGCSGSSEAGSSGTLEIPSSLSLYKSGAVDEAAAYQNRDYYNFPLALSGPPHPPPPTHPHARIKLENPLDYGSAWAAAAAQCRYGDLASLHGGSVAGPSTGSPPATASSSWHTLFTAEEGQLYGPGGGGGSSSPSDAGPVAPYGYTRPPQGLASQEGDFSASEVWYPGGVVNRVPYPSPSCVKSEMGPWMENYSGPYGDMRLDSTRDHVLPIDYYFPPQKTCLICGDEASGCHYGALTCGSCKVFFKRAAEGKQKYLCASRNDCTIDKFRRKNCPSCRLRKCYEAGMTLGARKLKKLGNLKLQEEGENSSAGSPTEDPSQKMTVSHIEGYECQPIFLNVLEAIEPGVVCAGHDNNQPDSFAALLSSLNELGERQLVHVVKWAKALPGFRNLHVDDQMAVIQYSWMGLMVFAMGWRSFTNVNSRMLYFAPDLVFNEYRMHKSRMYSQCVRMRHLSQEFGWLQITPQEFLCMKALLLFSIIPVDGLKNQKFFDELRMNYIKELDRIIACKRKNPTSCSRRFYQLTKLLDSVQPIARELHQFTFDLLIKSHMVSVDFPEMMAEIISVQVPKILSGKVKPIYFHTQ

AC50 data for 12 compounds are collected here from ChEMBL document CHEMBL5291721, “A preclinical secondary pharmacology resource illuminates target-adverse drug reaction associations of marketed drugs” (Nat Commun, 2023).

Each structure is given as a SMILES string.
Note: assay procedure not described here.

Cannabinoid receptor 1, sequence (P21554 whole entry): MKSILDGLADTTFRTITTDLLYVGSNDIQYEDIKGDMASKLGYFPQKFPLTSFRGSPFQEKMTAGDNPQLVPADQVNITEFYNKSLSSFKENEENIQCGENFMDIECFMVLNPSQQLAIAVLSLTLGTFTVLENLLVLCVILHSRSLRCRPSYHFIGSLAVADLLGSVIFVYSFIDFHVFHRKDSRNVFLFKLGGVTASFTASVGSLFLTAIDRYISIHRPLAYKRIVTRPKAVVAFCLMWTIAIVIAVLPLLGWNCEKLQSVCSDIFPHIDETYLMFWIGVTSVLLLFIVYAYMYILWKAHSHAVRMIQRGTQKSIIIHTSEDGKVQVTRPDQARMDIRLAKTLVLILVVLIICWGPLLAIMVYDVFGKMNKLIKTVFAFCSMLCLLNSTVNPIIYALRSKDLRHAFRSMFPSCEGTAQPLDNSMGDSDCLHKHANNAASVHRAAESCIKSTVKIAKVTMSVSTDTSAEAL
Histamine H2 receptor, sequence (P25021 whole entry): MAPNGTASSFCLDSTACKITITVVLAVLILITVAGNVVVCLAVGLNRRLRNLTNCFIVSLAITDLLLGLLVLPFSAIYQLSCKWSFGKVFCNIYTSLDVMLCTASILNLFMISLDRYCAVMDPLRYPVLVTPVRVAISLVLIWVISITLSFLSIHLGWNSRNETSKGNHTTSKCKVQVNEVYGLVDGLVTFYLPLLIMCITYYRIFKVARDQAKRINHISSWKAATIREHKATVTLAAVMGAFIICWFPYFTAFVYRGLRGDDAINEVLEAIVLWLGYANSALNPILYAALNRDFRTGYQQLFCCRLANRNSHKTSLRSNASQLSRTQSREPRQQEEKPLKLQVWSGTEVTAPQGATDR
Motilin receptor, sequence (O43193 whole entry): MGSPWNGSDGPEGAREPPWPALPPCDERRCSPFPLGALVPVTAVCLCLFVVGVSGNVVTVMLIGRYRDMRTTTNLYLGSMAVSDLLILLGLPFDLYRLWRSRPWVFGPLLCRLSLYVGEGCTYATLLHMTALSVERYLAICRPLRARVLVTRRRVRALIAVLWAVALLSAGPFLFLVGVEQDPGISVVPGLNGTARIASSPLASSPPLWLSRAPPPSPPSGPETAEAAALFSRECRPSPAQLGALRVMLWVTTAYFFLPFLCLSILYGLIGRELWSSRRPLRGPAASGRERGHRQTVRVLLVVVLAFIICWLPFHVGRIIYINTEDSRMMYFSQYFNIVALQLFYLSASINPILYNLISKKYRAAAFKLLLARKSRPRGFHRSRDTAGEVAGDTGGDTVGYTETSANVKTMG
Voltage-dependent N-type calcium channel subunit alpha-1B, sequence (Q02294 whole entry): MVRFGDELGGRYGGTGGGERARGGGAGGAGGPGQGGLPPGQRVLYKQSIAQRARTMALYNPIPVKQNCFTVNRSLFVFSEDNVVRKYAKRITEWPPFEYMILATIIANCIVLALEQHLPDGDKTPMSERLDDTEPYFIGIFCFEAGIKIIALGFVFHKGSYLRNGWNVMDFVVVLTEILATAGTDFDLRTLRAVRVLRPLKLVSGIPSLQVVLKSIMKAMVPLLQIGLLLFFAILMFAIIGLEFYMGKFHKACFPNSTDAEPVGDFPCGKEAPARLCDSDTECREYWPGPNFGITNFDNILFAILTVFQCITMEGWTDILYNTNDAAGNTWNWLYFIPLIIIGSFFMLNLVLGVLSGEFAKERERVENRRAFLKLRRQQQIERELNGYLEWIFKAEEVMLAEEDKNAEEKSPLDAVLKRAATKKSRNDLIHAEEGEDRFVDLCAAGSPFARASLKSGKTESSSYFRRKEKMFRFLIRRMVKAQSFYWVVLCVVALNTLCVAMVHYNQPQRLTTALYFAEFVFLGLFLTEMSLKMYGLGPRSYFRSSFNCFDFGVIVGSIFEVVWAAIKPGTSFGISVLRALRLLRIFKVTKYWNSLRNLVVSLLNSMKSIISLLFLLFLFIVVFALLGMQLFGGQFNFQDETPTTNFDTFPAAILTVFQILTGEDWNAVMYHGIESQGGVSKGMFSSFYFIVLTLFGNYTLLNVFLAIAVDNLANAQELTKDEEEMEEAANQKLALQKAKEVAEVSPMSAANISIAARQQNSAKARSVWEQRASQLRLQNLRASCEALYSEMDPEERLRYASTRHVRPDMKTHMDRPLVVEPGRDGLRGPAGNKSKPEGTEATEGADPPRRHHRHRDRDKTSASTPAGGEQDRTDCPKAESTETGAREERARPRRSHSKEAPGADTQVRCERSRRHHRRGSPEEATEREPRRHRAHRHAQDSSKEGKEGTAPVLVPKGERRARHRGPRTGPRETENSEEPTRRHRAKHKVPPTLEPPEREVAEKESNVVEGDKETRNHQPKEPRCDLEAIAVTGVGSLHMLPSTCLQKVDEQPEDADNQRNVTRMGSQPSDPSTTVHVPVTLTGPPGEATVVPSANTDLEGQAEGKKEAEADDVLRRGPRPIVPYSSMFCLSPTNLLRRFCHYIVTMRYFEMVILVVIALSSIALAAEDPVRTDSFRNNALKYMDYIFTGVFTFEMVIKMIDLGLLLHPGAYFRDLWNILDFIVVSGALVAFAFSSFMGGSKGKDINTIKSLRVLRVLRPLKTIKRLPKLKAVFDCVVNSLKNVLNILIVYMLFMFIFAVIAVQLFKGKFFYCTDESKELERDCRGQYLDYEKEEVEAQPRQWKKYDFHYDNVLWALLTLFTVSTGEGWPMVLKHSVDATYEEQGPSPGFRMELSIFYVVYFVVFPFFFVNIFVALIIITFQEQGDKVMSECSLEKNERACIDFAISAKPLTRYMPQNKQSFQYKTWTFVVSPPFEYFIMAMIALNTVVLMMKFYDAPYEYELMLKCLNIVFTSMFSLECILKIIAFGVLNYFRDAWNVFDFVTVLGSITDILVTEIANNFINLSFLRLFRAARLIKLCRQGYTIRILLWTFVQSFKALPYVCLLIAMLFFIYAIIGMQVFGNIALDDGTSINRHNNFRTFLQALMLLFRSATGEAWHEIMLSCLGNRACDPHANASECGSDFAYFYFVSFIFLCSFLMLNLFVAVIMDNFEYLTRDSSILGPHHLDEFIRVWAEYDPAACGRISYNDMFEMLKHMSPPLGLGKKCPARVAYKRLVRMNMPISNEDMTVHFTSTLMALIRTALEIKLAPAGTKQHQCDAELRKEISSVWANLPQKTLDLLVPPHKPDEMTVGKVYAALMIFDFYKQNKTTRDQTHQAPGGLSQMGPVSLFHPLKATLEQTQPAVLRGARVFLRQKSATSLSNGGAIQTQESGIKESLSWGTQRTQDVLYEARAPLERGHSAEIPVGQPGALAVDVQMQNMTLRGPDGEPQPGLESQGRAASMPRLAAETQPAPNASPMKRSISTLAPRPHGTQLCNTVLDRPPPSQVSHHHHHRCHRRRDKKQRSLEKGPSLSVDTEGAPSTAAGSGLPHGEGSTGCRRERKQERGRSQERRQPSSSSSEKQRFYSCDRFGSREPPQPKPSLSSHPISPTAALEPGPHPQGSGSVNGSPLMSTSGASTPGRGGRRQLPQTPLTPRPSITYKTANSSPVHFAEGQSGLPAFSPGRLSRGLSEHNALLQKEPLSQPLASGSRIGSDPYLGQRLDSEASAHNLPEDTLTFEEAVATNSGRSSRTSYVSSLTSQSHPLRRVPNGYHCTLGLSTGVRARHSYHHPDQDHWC
Beta-3 adrenergic receptor, sequence (P13945 whole entry): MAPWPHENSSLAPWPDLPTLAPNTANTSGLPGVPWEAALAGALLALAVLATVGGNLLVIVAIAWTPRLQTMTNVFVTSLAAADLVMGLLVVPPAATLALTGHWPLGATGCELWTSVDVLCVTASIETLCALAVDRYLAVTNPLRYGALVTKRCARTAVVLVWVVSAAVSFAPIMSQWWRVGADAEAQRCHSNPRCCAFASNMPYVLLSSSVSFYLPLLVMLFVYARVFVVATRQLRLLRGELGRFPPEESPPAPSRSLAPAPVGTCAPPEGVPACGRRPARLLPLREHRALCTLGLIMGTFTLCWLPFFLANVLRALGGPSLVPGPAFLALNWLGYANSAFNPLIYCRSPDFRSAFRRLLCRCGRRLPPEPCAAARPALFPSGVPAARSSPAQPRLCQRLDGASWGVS

Consider `CC1=C(CC(=O)O)c2cc(F)ccc2/C1=C\c1ccc([S+](C)[O-])cc1` (stereo not drawn), for which the AC50 (in general, the concentration giving half of the maximal activity seen) in assay [1] was above 10 µM; in [2], above 30 µM; in assay [3], above 30 µM; in assay [4], above 30 µM; on Motilin receptor it was above 10 µM; at Histamine H2 receptor, above 10 µM. Also, the AC50 in [5] was above 30 µM; in [6] it was above 30 µM; in [7], above 10 µM.

For the compound `O=C(O[C@H]1C[N+]2(CCCOc3ccccc3)CCC1CC2)C(O)(c1cccs1)c1cccs1` [ACLIDINIUM BROMIDE], the AC50 in assay [1] was above 10 µM; in assay [2], above 30 µM; in assay [3], above 30 µM; in [4] it was above 30 µM; at Cannabinoid receptor 1, above 10 µM; on Motilin receptor, above 10 µM. Further, the AC50 on Histamine H2 receptor was above 10 µM; in assay [6] it was above 30 µM; in [7], above 10 µM.

In the case of `Cc1nnc2n1-c1ccc(Cl)cc1C(c1ccccc1)=NC2` [ALPRAZOLAM], the AC50 in assay [1] is above 10 µM; in [2] it was above 30 µM; in assay [3], above 30 µM; in assay [4] it was above 30 µM; on Cannabinoid receptor 1 it was 3.35 µM; on Motilin receptor it was above 10 µM. Moreover, the AC50 on Histamine H2 receptor was above 10 µM; in assay [5] it was above 30 µM; in [6] it was above 30 µM; in [8], above 30 µM; in assay [7] it was above 10 µM.

As to `CC(NC(C)(C)C)C(=O)c1cccc(Cl)c1` (stereo not drawn) [BUPROPION], the AC50 in assay [1] was above 10 µM; in assay [2], above 30 µM; in [4], above 30 µM; on Cannabinoid receptor 1, above 10 µM; at Motilin receptor, above 10 µM; on Histamine H2 receptor, above 10 µM. Moreover, the AC50 in assay [5] is above 30 µM; in assay [6], above 30 µM; in assay [8] it was above 30 µM; in [7], above 10 µM.

With `Oc1cc(O)c2c(c1)O[C@H](c1ccc(O)c(O)c1)[C@@H](O)C2` [CIANIDANOL], the AC50 in assay [1] was above 10 µM; in assay [2], above 30 µM; in assay [4], above 30 µM; at Cannabinoid receptor 1 it was above 10 µM; at Motilin receptor, above 10 µM; on Histamine H2 receptor, above 10 µM. Further, the AC50 in [9] was above 30 µM; in assay [5] it was above 30 µM; in assay [6], above 30 µM; in assay [8] it was above 30 µM; in assay [7], above 10 µM.

As to `CCOC(=O)C1=C(C)NC(C)=C(C(=O)OC)C1c1cccc(Cl)c1Cl` (stereo not drawn) [FELODIPINE], the AC50 in [1] was above 10 µM; in assay [2], above 30 µM; in assay [3] it was above 30 µM; in [4], above 30 µM; at Cannabinoid receptor 1, 13.4 µM; at Motilin receptor, above 10 µM. Besides, the AC50 on Histamine H2 receptor is above 10 µM; in assay [5], 10.4 µM; in assay [6], above 30 µM; in [7], above 10 µM.

In the case of `CN1C(=O)CN=C(c2ccccc2F)c2cc([N+](=O)[O-])ccc21` [FLUNITRAZEPAM], the AC50 in [1] is above 10 µM; on Androgen receptor it was above 30 µM; in [2], above 30 µM; in assay [3] it was above 30 µM; in [4], above 30 µM; at Cannabinoid receptor 1, above 10 µM. Besides, the AC50 is above 10 µM at Motilin receptor; above 10 µM on Histamine H2 receptor; above 30 µM in assay [5]; above 30 µM in assay [6]; above 10 µM in [7].

`CN1C2CCCC1CC(NC(=O)c1nn(C)c3ccccc13)C2` (stereo not drawn) [GRANISETRON]: the AC50 in assay [1] is above 10 µM; in [2], above 30 µM; in assay [3], above 30 µM; in [4], above 30 µM; at Cannabinoid receptor 1, above 10 µM; on Motilin receptor it was above 10 µM. Further, the AC50 at Histamine H2 receptor is above 10 µM; in [5] it was above 30 µM; in assay [6] it was above 30 µM; in assay [8] it was above 30 µM.

Regarding `COc1ccc2c3c1O[C@H]1C(=O)CC[C@H]4[C@@H](C2)N(C)CC[C@]314` [HYDROCODONE], the AC50 in [1] was above 10 µM; in assay [2], above 30 µM; in assay [3] it was above 30 µM; in assay [4] it was above 30 µM; on Motilin receptor it was above 10 µM; at Histamine H2 receptor, above 10 µM. The AC50 in assay [9] was above 30 µM; in [5], above 30 µM; in assay [6], above 30 µM; in assay [8], above 30 µM; in [7], above 10 µM.

For `CCN(CC)CC(=O)Nc1c(C)cccc1C` [LIDOCAINE], the AC50 is above 30 µM in assay [2]; above 30 µM in assay [3]; above 30 µM in [4]; above 10 µM at Motilin receptor; above 30 µM in assay [6].

With `CC1NCCOC1c1ccccc1` (stereo not drawn) [PHENMETRAZINE], the AC50 in [1] was above 10 µM; in assay [2], above 30 µM; in assay [3] it was above 30 µM; in [4] it was above 30 µM; at Cannabinoid receptor 1 it was above 10 µM; at Motilin receptor it was above 10 µM. The AC50 in [9], in assay [5], in [6] and in [8] was above 30 µM throughout.

With `CC(C)(N)Cc1ccccc1` [PHENTERMINE], the AC50 in [1] was above 10 µM; at Androgen receptor it was above 30 µM; in assay [2], above 30 µM; in assay [3], above 30 µM; in assay [4], above 30 µM; at Cannabinoid receptor 1 it was above 10 µM. The AC50 was above 10 µM at Motilin receptor; above 30 µM in assay [9]; above 30 µM in assay [5]; above 30 µM in [6]; above 30 µM in [8].
